Experimental findings from ChEMBL document CHEMBL1201862, “PubChem BioAssay data set” (2004) are described below.

Some test systems named below: A498; ACHN; COLO 205; EKVX; HCT-15; HOP-92; Hs-578T; IGROV-1; M14; MDA-MB-231; MOLT-4; NCI-H226; OVCAR-5; RPMI-8226; RXF 393; SF-295; SK-OV-3; SR; T47D; TK-10.
Common to all, as to assay: NCI tumour cell line growth inhibition, 48 h

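Cells were grown in 96-well plates and exposed to each compound for 48 hours at five concentrations; endpoints were interpolated linearly between bracketing concentrations, or set to the highest concentration if not reached. The concentration for 50% growth inhibition is given as GI50.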 The source made the active and inactive calls. Cut-off read from the data, not from the text of the source: active = GI50 up to about 1.1 µM and inactive = higher.

For `C[n+]1c(-c2ccc(/C=N\N3CCN(/N=C/c4ccc(-c5cn6ccccc6[n+]5C)cc4)CC3)cc2)cn2ccccc21`, the GI50 with A498 was 16.2 µM (inactive); in the assay with ACHN, 45.1 µM (inactive); in the assay on COLO 205, 27.1 µM (inactive); with EKVX, 70.8 µM (inactive); with HCT-15 it was 88.3 µM; in the assay on HOP-92, 26.4 µM (inactive). The GI50 in the assay with Hs-578T is 29.3 µM (inactive); in the assay with IGROV-1 it was 57.9 µM (inactive); in the assay on M14, 48.4 µM (inactive); in the assay with MDA-MB-231, 27.3 µM (inactive); with MOLT-4 it was 68.7 µM (inactive); with NCI-H226, 33 µM (inactive). Besides, the GI50 with OVCAR-5 was > 100 µM (inactive); with RPMI-8226, 20.9 µM (inactive); in the assay with RXF 393, 24.5 µM (inactive); with SF-295 it was 19.1 µM (inactive); in the assay with SK-OV-3 it was > 100 µM (inactive); in the assay on SR, 30.7 µM (inactive). Also, the figures for the GI50 in the assay on T47D and with TK-10 were 34.9 µM (inactive) and 63.4 µM (inactive), respectively.

Turning to `C=C1CC(c2ccc(OCCCN3C(=O)c4ccccc4C3=O)c(OC)c2)OC1=O` (stereo not drawn), the GI50 in the assay on A498 was 1.77 µM (inactive); in the assay on ACHN, 6.25 µM (inactive); in the assay with COLO 205 it was 1.4 µM (inactive); in the assay with EKVX, 11 µM (inactive); in the assay on HCT-15, 2.71 µM; with HOP-92, 1.62 µM (inactive). For the same compound, the GI50 with Hs-578T was 6.17 µM (inactive); with IGROV-1, 2.56 µM (inactive); in the assay on M14, 4.3 µM (inactive); in the assay with MDA-MB-231, 9.25 µM (inactive); in the assay on MOLT-4, 0.615 µM (active); in the assay on NCI-H226, 5.61 µM (inactive). Moreover, the GI50 was 13.7 µM (inactive) with OVCAR-5; 0.849 µM (active) with RPMI-8226; 1.95 µM (inactive) with RXF 393; 11.2 µM (inactive) in the assay with SF-295; 15.4 µM (inactive) in the assay on SK-OV-3; 0.973 µM (active) in the assay on SR. Moreover, the figures for the GI50 in the assay on T47D and in the assay with TK-10 were 2.56 µM (inactive) and 2.39 µM (inactive), respectively.

As to `CCN(CC)C(=S)SC(C(=O)Nc1nnc(-c2ccc(Cl)cc2)o1)c1ccccc1` (stereo not drawn), the GI50 in the assay with A498 was 11.9 µM (inactive); with ACHN, 6.64 µM (inactive); in the assay with COLO 205, 4.06 µM (inactive); in the assay on EKVX it was 8.47 µM (inactive); with HCT-15, 3.81 µM; in the assay on HOP-92, 16.6 µM (inactive). Moreover, the GI50 in the assay on Hs-578T was 35.4 µM (inactive); in the assay with IGROV-1, 2.7 µM (inactive); with M14, 10.8 µM (inactive); in the assay with MDA-MB-231, 26 µM (inactive); with MOLT-4, 3.48 µM (inactive); with OVCAR-5 it was 6.41 µM (inactive). In addition, the GI50 is 4.72 µM (inactive) with RPMI-8226; 14.9 µM (inactive) in the assay with RXF 393; 12.8 µM (inactive) with SF-295; 13 µM (inactive) in the assay on SK-OV-3; 4.97 µM (inactive) in the assay with SR; 6.53 µM (inactive) in the assay on T47D. In addition, the GI50 in the assay with TK-10 was 23.5 µM (inactive).

For `COc1cc2ncnc(Nc3cccc(Br)c3)c2cc1OC`, the GI50 is 3.12 µM (inactive) in the assay on A498; 0.06 µM (active) with ACHN; 4.43 µM (inactive) in the assay on COLO 205; 0.316 µM (active) in the assay with EKVX; 6.56 µM with HCT-15; 3.97 µM (inactive) in the assay with HOP-92. Also, the GI50 in the assay on Hs-578T is 4.44 µM (inactive); in the assay on IGROV-1, 2.02 µM (inactive); in the assay with M14, 3.79 µM (inactive); with MDA-MB-231, 5.61 µM (inactive); with MOLT-4, 16.6 µM (inactive); in the assay on NCI-H226 it was 3.25 µM (inactive). Moreover, the GI50 in the assay with OVCAR-5 was 8.13 µM (inactive); in the assay on RPMI-8226 it was 34.1 µM (inactive); with RXF 393, 11.5 µM (inactive); with SF-295, 3.17 µM (inactive); in the assay on SK-OV-3, 0.284 µM (active); in the assay with SR, 20.3 µM (inactive). Also, the GI50 in the assay on T47D was 6.81 µM (inactive); in the assay on TK-10, 0.653 µM (active).

With `O=c1cc(/C=C/c2ccc(O)c(O)c2)cc(/C=C/c2ccc(O)c(O)c2)o1`, the GI50 is 11 µM (inactive) with A498; 5.85 µM (inactive) in the assay with ACHN; 12.1 µM (inactive) in the assay with COLO 205; 8.11 µM (inactive) in the assay with EKVX; 10.4 µM with HCT-15; 15.2 µM (inactive) with HOP-92. In addition, the GI50 with Hs-578T is 8.05 µM (inactive); in the assay with IGROV-1, 12.9 µM (inactive); in the assay with M14, 10.5 µM (inactive); in the assay on MDA-MB-231, 11.5 µM (inactive); with MOLT-4, 1.92 µM (inactive); in the assay on NCI-H226, 14.9 µM (inactive). The GI50 in the assay on OVCAR-5 is 12.2 µM (inactive); in the assay with RPMI-8226, 5.02 µM (inactive); in the assay with RXF 393 it was 6.71 µM (inactive); in the assay with SF-295, 9.44 µM (inactive); in the assay on SK-OV-3 it was 11.5 µM (inactive); in the assay with SR, 1.24 µM (inactive). For the same compound, the values for the GI50 with T47D and with TK-10 were 8.79 µM (inactive) and 17.5 µM (inactive), respectively.

Regarding `CC(=O)Oc1c2ccsc2c(OC(C)=O)c2ccsc12`, the GI50 with A498 is 1.77 µM (inactive); in the assay on ACHN, 0.667 µM (active); in the assay with COLO 205, 1.76 µM (inactive); in the assay on EKVX, 1.5 µM (inactive); in the assay with HCT-15 it was 0.573 µM; with HOP-92, 0.577 µM (active). For the same compound, the GI50 in the assay with Hs-578T was 0.354 µM (active); in the assay on IGROV-1, 1.79 µM (inactive); with M14 it was 0.269 µM (active); in the assay with MDA-MB-231 it was 1.29 µM (inactive); with MOLT-4, 0.955 µM (active); with NCI-H226 it was 2.54 µM (inactive). Moreover, the GI50 is 2.47 µM (inactive) in the assay with OVCAR-5; 6.56 µM (inactive) in the assay on RPMI-8226; 0.0172 µM (active) in the assay on RXF 393; 1.07 µM (active) with SF-295; 2.86 µM (inactive) in the assay on SK-OV-3; 0.317 µM (active) in the assay on SR. The GI50 was 1.89 µM (inactive) in the assay with T47D and 1.97 µM (inactive) in the assay with TK-10.

In the case of `Clc1ccc(C2Nc3ccccc3C3=NCCN32)cc1` (stereo not drawn), the GI50 in the assay with A498 was 22.9 µM (inactive); in the assay on ACHN, 35.3 µM (inactive); with COLO 205, 13 µM (inactive); with EKVX, 25.6 µM (inactive); in the assay with HCT-15, 34.3 µM; in the assay on HOP-92, 8.18 µM (inactive). The GI50 was 33.3 µM (inactive) in the assay on Hs-578T; 14.2 µM (inactive) in the assay on IGROV-1; 15.1 µM (inactive) in the assay on M14; 23.5 µM (inactive) with MDA-MB-231; 36.4 µM (inactive) in the assay on MOLT-4; 29.7 µM (inactive) in the assay with OVCAR-5. Moreover, the GI50 is 15.9 µM (inactive) in the assay on RPMI-8226; 21.1 µM (inactive) in the assay on RXF 393; 14.8 µM (inactive) in the assay on SF-295; 26.1 µM (inactive) in the assay on SK-OV-3; 21 µM (inactive) in the assay on SR; 15.6 µM (inactive) in the assay with T47D. Further, in the assay with TK-10, the GI50 is 16.8 µM (inactive).

On to `COc1cccc2cc(C(N)=O)c(=N)oc12`, for which the GI50 in the assay with A498 is > 100 µM (inactive); in the assay on ACHN it was 40.3 µM (inactive); with COLO 205, 49.4 µM (inactive); in the assay on EKVX, 29.2 µM (inactive); with HCT-15, 52.6 µM; in the assay on HOP-92, 81.8 µM (inactive). Besides, the GI50 in the assay on Hs-578T is 31.5 µM (inactive); in the assay with IGROV-1, 35.5 µM (inactive); with M14, 46.6 µM (inactive); with MDA-MB-231, 65.2 µM (inactive); in the assay with MOLT-4, > 100 µM (inactive); in the assay on NCI-H226, 96.2 µM (inactive). Also, the GI50 in the assay with OVCAR-5 was 51.3 µM (inactive); in the assay with RPMI-8226 it was 90.2 µM (inactive); with RXF 393 it was 70.5 µM (inactive); in the assay on SK-OV-3 it was 49.9 µM (inactive); in the assay on SR it was 58.2 µM (inactive); in the assay on T47D it was 37.3 µM (inactive).

Regarding `BrC(=C(c1ccc(OC2CCCCO2)cc1)c1ccc(OC2CCCCO2)cc1)c1ccccc1` (stereo not drawn), the GI50 with A498 was > 100 µM (inactive); in the assay on COLO 205, > 100 µM (inactive); in the assay with EKVX, > 100 µM (inactive); in the assay on HCT-15, above 100 µM; in the assay with HOP-92 it was > 100 µM (inactive); in the assay on Hs-578T it was > 100 µM (inactive). Also, the GI50 in the assay on IGROV-1, in the assay with M14, in the assay on MDA-MB-231, in the assay on MOLT-4, with NCI-H226 and in the assay with RPMI-8226 was > 100 µM (inactive) each time. The GI50 is > 100 µM (inactive) in the assay with RXF 393; > 100 µM (inactive) in the assay with SF-295; > 100 µM (inactive) in the assay on SK-OV-3; > 100 µM (inactive) in the assay on SR; > 100 µM (inactive) in the assay with T47D; 28.8 µM (inactive) in the assay on TK-10.

As for `CCOC(=O)c1nc2ccc(C(F)(F)F)cc2nc1Nc1ccc(Cl)c(Cl)c1`, the GI50 in the assay on A498 is > 100 µM (inactive); in the assay on ACHN, 97.1 µM (inactive); with COLO 205, > 100 µM (inactive); in the assay on EKVX, > 100 µM (inactive); in the assay on HCT-15, 94.4 µM; in the assay with HOP-92, > 100 µM (inactive). Also, the GI50 in the assay on Hs-578T was 97.3 µM (inactive); with IGROV-1 it was > 100 µM (inactive); with M14, 79.8 µM (inactive); in the assay with MDA-MB-231, 60 µM (inactive); with MOLT-4, > 100 µM (inactive); in the assay with OVCAR-5, > 100 µM (inactive). Further, the GI50 in the assay on RPMI-8226 was > 100 µM (inactive); in the assay with RXF 393 it was > 100 µM (inactive); in the assay on SF-295, 30.3 µM (inactive); in the assay on SK-OV-3 it was > 100 µM (inactive); in the assay on SR, 75.3 µM (inactive); with T47D, > 100 µM (inactive). Moreover, in the assay with TK-10, the GI50 was > 100 µM (inactive).
